The record followed here is ChEMBL document CHEMBL4831484, “Identification of 3, 4-disubstituted pyridine derivatives as novel CDK8 inhibitors” (Eur J Med Chem, 2021).

In data set [1] the test system is KB. Put plainly: Antiproliferative activity against human KB cells assessed as inhibition of cell growth measured after 72 hrs by SRB assay. Type of data set: functional. (The SRB assay estimates cell density from bound dye.)
For data set [2], the system named is MDA-MB-231. Put plainly: Induction of cell cycle arrest in human MDA-MB-231 cells assessed as accumulation of cells at G2/M phase measured after 24 hrs by PI staining based flow cytometry assay. Type of data set: functional. (In general: In flow cytometry, cells or beads pass a laser one at a time.)
Data set [3] in a line: Antiproliferative activity against human KB-VIN cells assessed as inhibition of cell growth measured after 72 hrs by SRB assay. Type of data set: functional. The following applies: KBVIN.
For data set [4], the target named is CDK8/Cyclin C (Homo sapiens) (UniProt P49336+P24863). Put plainly: Inhibition of CDK8/Cyclin C (unknown origin) at 10 uM measured after 1 hr by plate reader assay relative to control. Type of data set: protein-complex assay.
The test system of data set [5] is MDA-MB-231. Put plainly: Antiproliferative activity against human MDA-MB-231 cells assessed as inhibition of cell growth measured after 72 hrs by SRB assay. Type of data set: functional.
Data set [6] concerns A549. Put plainly: Antiproliferative activity against human A549 cells assessed as inhibition of cell growth measured after 72 hrs by SRB assay. Type of data set: functional.
Data set [7] concerns HCT-116. Put plainly: Antiproliferative activity against human HCT-116 cells assessed as inhibition of cell growth measured after 72 hrs by […]. Type of data set: functional. For orientation: Formazan colour is commonly taken as a measure of viable cells.
Data set [8] has as its system MCF7. Put plainly: Antiproliferative activity against human MCF7 cells assessed as inhibition of cell growth measured after 72 hrs by SRB assay. Type of data set: functional.
Data set [9] deals with CDK8/Cyclin C (Homo sapiens, UniProt P49336). Put plainly: Inhibition of CDK8/Cyclin C (unknown origin) measured after 1 hr by plate reader assay. Type of data set: protein-complex assay.
Sequence of CDK8/Cyclin C (P49336 whole entry): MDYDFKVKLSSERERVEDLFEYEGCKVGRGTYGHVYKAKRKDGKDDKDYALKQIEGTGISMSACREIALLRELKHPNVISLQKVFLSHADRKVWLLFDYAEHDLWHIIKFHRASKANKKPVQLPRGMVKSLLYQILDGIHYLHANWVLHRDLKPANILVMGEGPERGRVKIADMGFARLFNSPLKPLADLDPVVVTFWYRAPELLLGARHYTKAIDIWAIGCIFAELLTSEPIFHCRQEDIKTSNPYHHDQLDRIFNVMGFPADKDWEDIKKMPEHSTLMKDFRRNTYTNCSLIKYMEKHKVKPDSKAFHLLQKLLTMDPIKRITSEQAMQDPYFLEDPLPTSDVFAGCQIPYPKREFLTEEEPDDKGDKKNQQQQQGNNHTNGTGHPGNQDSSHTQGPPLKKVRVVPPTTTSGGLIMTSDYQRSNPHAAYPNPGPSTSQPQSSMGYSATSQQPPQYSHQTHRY
Sequence of CDK8/Cyclin C (P24863 whole entry, further chain): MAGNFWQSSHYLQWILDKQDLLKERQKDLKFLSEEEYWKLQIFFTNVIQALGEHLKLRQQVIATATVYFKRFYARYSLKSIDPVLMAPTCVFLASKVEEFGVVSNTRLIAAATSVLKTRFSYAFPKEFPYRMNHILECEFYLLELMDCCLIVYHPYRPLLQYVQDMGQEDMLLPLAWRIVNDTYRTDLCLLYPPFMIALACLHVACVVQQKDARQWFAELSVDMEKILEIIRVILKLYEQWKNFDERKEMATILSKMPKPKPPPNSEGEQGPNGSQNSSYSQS
The target of data set [10] is Cyclin-dependent kinase 8 (Homo sapiens) (UniProt P49336). Put plainly: Inhibition of CDK8 (unknown origin) at 10 uM.
Sequence of Cyclin-dependent kinase 8 (Homo sapiens) (P49336 whole entry): as the sequence (P49336 whole entry) above
For data set [11], the target named is Cyclin-C/Cyclin-dependent kinase 19 (Homo sapiens, UniProt Q9BWU1). Put plainly: Inhibition of CDK19/Cyclin C (unknown origin). Type of data set: protein-complex assay.
Sequence of Cyclin-C/Cyclin-dependent kinase 19 (Q9BWU1 whole entry): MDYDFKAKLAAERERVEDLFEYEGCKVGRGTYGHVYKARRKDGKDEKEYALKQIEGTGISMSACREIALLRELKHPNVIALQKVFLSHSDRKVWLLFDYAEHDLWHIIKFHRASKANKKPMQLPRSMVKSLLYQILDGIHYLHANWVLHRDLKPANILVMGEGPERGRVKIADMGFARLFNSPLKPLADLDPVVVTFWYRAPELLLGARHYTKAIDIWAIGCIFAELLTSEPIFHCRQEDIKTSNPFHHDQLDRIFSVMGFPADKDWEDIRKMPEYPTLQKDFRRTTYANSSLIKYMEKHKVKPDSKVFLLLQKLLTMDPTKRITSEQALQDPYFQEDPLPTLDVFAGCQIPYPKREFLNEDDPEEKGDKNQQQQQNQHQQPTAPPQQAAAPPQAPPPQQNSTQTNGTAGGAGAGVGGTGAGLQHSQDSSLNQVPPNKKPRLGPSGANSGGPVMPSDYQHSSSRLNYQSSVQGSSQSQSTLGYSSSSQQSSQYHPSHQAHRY
Sequence of Cyclin-C/Cyclin-dependent kinase 19 (P24863 whole entry, further chain): as the sequence (P24863 whole entry, further chain) above
Data set [12] addresses Cyclin-dependent kinase 7 (Homo sapiens) (UniProt P50613). Put plainly: Inhibition of CDK7 (unknown origin) at 10 uM.
The nature of data set [13]: AUC (0 to 24h) in ICR mouse at 150 mg/kg, po measured after 24 hrs by LC-MS/MS analysis. Type of data set: ADME, organism-based. Also on record: route oral, dose 150 mg/kg, time 24 hrs. The following applies: in vivo.
Data set [14] is described as follows: MRT (0 to 24h) in ICR mouse at 150 mg/kg, po measured after 24 hrs by LC-MS/MS analysis. Type of data set: ADME, organism-based. To be noted: in vivo.
Data set [15] is described as follows: Toxicity in BALB/c mouse xenografted with human HCT-116 cells assessed as mortality at 150 mg/kg, po measured after 14 days. Type of data set: organism-based. The following applies: in vivo, 336 h, time 14 day.
Data set [16] is described as follows: Tmax in ICR mouse at 150 mg/kg, po measured after 24 hrs by LC-MS/MS analysis. To be noted: in vivo. Type of data set: ADME, organism-based.
Data set [17] in a line: Half-life in ICR mouse at 150 mg/kg, po measured after 24 hrs by LC-MS/MS analysis. Type of data set: ADME, organism-based. To be noted: in vivo.
Data set [18] is described as follows: Toxicity in BALB/c mouse xenografted with human HCT-116 cells assessed as changes in body weight at 150 mg/kg, po measured after 14 days. Type of data set: organism-based. To be noted: in vivo, 336 h, time 14 day.
Data set [19] deals with HCT-116. Put plainly: Antitumour activity against human HCT-116 cells assessed as decrease in tumor volume at 150 mg/kg, po measured after 14 days relative to control. Type of data set: functional. Also on record: scale not given: the % may be the effect or the level left. The following applies: time 14 day.
A short description of data set [20]: Cmax in ICR mouse at 150 mg/kg, po measured after 24 hrs by LC-MS/MS analysis. Type of data set: ADME, organism-based. Also on record: route oral, time 24 hrs, dose 150 mg/kg. The following applies: in vivo.

Calls of active or inactive are those of the source.

Sequence of Cyclin-dependent kinase 7 (Homo sapiens) (P50613 whole entry): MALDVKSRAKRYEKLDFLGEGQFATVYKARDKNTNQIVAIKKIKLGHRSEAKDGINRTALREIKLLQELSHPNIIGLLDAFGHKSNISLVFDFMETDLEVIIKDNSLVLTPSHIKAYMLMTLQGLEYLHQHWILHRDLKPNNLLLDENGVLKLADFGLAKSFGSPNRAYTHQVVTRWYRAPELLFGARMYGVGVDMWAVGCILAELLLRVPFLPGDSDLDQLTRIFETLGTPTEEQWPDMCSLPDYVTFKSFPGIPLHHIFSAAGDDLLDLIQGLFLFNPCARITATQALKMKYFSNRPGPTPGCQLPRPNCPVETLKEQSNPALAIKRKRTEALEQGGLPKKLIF

On to `CN(C)C(=O)/C=C/c1ccncc1-c1ccc2ccccc2c1`, for which the GI50 (commonly the concentration giving 50% growth inhibition) in [1] amounted to 7.76 µM; in data set [3] it was 4.93 µM; in data set [5] it was 7.99 µM; in [6], 5.8 µM; in data set [7], 4.54 µM; in [8], 8.19 µM. Besides, the Activity result in data set [2] was “Dose-Dependent Effect”. Further, the inhibition (in general, the drop in the measured response relative to a control, in per cent) in [4] came to 100%. Also, in [9], the half-maximal inhibitory concentration (IC50) (commonly the concentration that gives 50% inhibition) worked out at 0.0301 µM.

With `CNC(=O)/C=C/c1ccncc1-c1ccc2cc[nH]c2c1`, the 50% growth inhibitory concentration (GI50) in data set [1] is > 10 µM; in data set [3], 10.9 µM; in [5], 7.68 µM; in [6], 7.84 µM; in data set [7], 10.3 µM; in [8], 9.23 µM. Moreover, the inhibition entry in [10] was “Active”. Moreover, the IC50 in data set [11] turned out to be 0.0282 µM; in [9], 0.0186 µM. Also, in [4], the inhibition amounted to 103%.

Regarding `O=C(/C=C/c1ccncc1-c1ccc2cc[nH]c2c1)N1CCOCC1`, the concentration for 50% growth inhibition (GI50) in [1] was > 10 µM; in [3] it was > 10 µM; in [5], > 10 µM; in [6] it was > 10 µM; in [7], > 30 µM; in data set [8] it was > 10 µM. The inhibition result in data set [10] and in [12] was “Active” throughout. Also, the inhibition in data set [4] was 102%. In [9], this compound displayed an IC50 of 0.0439 µM.

In the case of `COC(=O)/C=C/c1ccncc1-c1ccc2ccccc2c1`, the GI50 is 6.73 µM in data set [1]; 5.46 µM in data set [3]; 4.71 µM in data set [5]; 0.76 µM in data set [6]; 0.35 µM in data set [7]; 8.17 µM in data set [8]. In addition, the exposure AUC(0-t) – broadly, exposure summed from dosing to a finite time, without extrapolation to infinity – at 24 h in [13] was 153 ng·h/mL. The mean residence time (MRT last) (usually a mean duration of stay, worked out from the concentration-time curve) at 24 h in data set [14] was 2.68 h. The Activity entry in data set [15] is given as “Non-Toxic”; in data set [18], “Non-Toxic”; in data set [19], 44%. Besides, the Tmax – broadly, the time at which the peak concentration occurs – in [16] amounted to 0.57 h. For the same compound, the half-life (as a rule, the time needed for the level to fall by half in the phase considered) in data set [17] is 3.93 h. Moreover, the inhibition in data set [4] turned out to be 102%. Moreover, the peak concentration (Cmax) (commonly the highest concentration seen after dosing) in data set [20] was 46.6 ng/mL. This compound gave an IC50 in data set [9] of 0.0406 µM.

Regarding `CNC(=O)/C=C/c1ccncc1-c1ccc2[nH]ccc2c1`, the GI50 in data set [1] is > 10 µM; in [3], > 10 µM; in data set [5] it was > 10 µM; in [6], > 10 µM; in data set [7] it was > 30 µM; in data set [8] it was > 10 µM. Moreover, the inhibition entry in [10] was “Active”. The inhibition in data set [4] stood at 100%. The same compound came in with a 50% inhibitory concentration (IC50) in data set [9] of 0.0519 µM.

Consider `CNC(=O)/C=C/c1ccncc1-c1ccc2ccccc2c1`, for which the concentration for 50% growth inhibition (GI50) in [1] is > 10 µM; in data set [3], 7.66 µM; in data set [5] it was 8.68 µM; in data set [6], 6.62 µM; in data set [7], 6.55 µM; in data set [8], 9.34 µM. In data set [10], the inhibition entry is “Active”. Besides, the inhibition in data set [4] is 101%. In addition, the half-maximal inhibitory concentration (IC50) in data set [9] was determined as 0.0124 µM.

For the compound `CCOC(=O)/C=C/c1ccncc1-c1ccc2ccccc2c1`, the concentration for 50% growth inhibition (GI50) in data set [1] is > 10 µM; in data set [3], 8.89 µM; in data set [5], 8.09 µM; in data set [6], 5.38 µM; in data set [7], 0.91 µM; in [8], 8.32 µM. The inhibition entry in [10] was “Active”. In addition, the inhibition in data set [4] was determined as 102%. For the same compound, the IC50 in data set [9] stood at 0.0533 µM.

Take `CN1CCN(C(=O)/C=C/c2ccncc2-c2ccc3ccccc3c2)CC1`: the GI50 in data set [1] was > 10 µM; in [3] it was > 10 µM; in [5] it was > 10 µM; in data set [6], > 10 µM; in data set [7] it was > 30 µM; in data set [8] it was > 10 µM. In addition, in [10], the inhibition result is “Active”. In addition, the inhibition in [4] is 101%. Further, the IC50 in data set [9] was 0.0436 µM.

`O=C(O)/C=C/c1ccncc1-c1ccc2ccccc2c1`: the concentration for 50% growth inhibition (GI50) in data set [1] is > 10 µM; in data set [3], > 10 µM; in data set [5], > 10 µM; in [6], > 10 µM; in [7], > 30 µM; in data set [8], > 10 µM. Besides, in data set [10], the inhibition entry was “Active”. Besides, the inhibition in data set [4] came out at 102%. In [9], this compound returned a half-inhibitory concentration (IC50) of 0.005 µM.

Consider `O=C(/C=C/c1ccncc1-c1ccc2ccccc2c1)N1CCOCC1`, for which the 50% growth inhibitory concentration (GI50) in data set [1] is > 10 µM; in data set [3], 8.48 µM; in data set [5], 8.98 µM; in data set [6], 8.41 µM; in data set [7] it was 6.04 µM; in data set [8] it was > 10 µM. For the same compound, the inhibition result in data set [10] was “Active”. For the same compound, in data set [4], the inhibition worked out at 99%. Also, the IC50 in data set [9] amounted to 0.0603 µM.

As to `CCOC(=O)/C=C/c1ccncc1-c1ccc2cc[nH]c2c1`, the 50% growth inhibitory concentration (GI50) in data set [1] came to 7.86 µM; in data set [3] it was 7.7 µM; in [5] it was 7.98 µM; in [6], 5.74 µM; in [7], 2.14 µM; in data set [8], 6.88 µM. The inhibition entry in [10] is “Active”. Moreover, the IC50 in data set [11] worked out at 0.0457 µM; in data set [9] it was 0.0121 µM. Also, the inhibition in data set [4] was 104%.
